Laboratory results from patent US20180228780A1, “3-(1H-PYRROLO[2,3-C]PYRIDIN-2-YL)-1H-INDAZOLES AND THERAPEUTIC USES THEREOF” (Samumed, LLC, priority 2015, published 2018).

Columns and labels:
Format in all cases: cell-based
[1] = test system: Wnt activity (Sp5-Luc reporter, SW480 colon carcinoma cells); test: Screening assay for Wnt activity: Sp5-Luc reporter gene assay in SW480 cells; conditions: Homo sapiens; for EC50: SW480 Sp5-Luc reporter, overnight incubation; for inhibition at 10 µM: SW480, read-out: percent inhibition at 10 μM
From the text: The screening assay for Wnt activity is described as follows. Reporter cell lines can be generated by stably transducing cancer cell lines (e.g., colon cancer) or primary cells (e.g., IEC-6 intestinal cells) with a lentiviral construct that includes a Wnt-responsive promoter driving expression of the firefly luciferase gene.
SW480 colon carcinoma cells were transduced with a lentiviral vector expressing luciferase with a human Sp5 promoter consisting of a sequence of eight TCF/LEF binding sites. SW480 cells stably expressing the Sp5-Luc reporter gene and a hygromycin resistance gene were selected by treatment with 150 μg/mL of hygromycin for 7 days. These stably transduced SW480 cells were expanded in cell culture and used for all further screening activities. […] For Sp5-Luc reporter gene assays, the cells were plated at 4,000 cells/well in 384-well plates with medium containing 1% fetal bovine serum and incubated overnight at 37° C. and 5% CO2. Following incubation, 20 μl of BrightGlo luminescence reagent (Promega) was added to each well of the 384-well assay plates. The plates were placed on an orbital shaker for 2 min and then luminescence was quantified using the Envision (Perkin Elmer) plate reader. Readings were normalized to DMSO only treated cells, and normalized activities were utilized for EC50 calculations using the dose-response log (inhibitor) vs. response-variable slope (four parameters) nonlinear regression feature available in GraphPad Prism 5.0 (or Dotmatics).

[2] = test system: primary human mesenchymal stem cells (hMSCs); test: Induction of chondrogenesis in hMSCs (nodule imaging, Rhodamine B / Nile Red); conditions: 6 days, relative to TGF-β3 (10 ng/mL) positive control, read-out: Max. Activity as % TGF-β3 activity
From the text: Representative compounds were screened using primary human mesenchymal stem cells (hMSCs) to determine their ability to induce chondrogenesis (process by which cartilage is developed).
Primary human mesenchymal stem cells (hMSCs) were purchased from Lonza (Walkersville, Md.) and expanded in Mesenchymal Stem Cell Growth Media (Lonza). Cells between passage 3 and 6 were used for the experiments.
Area of nodules in each well was normalized to the average of 3 DMSO treated wells on the same plate using Excel (Microsoft Inc.). The normalized averages (fold change over DMSO) of 2 or 3 replicate wells for each compound concentration were calculated. Due to solubility limitations of some of the compounds, curve fitting was incomplete leading to inaccurate EC50 determinations.
Using TGF-β3 as a positive control, the concentration of representative compounds required to induce 50% levels of chondrogenesis is reported. In addition, the maximum activity of each compound and the respective dose that each compound reached maximum chondrogenesis activity is reported.

SW480 colon cancer cells = test: Cell viability assay (CellTiter-Blue) in SW480 colon cancer cells; conditions: Homo sapiens; for EC50: 96 h, SW480 cell viability, four days incubation; for inhibition at 10 µM: SW480, read-out: percent inhibition at 10 μM
Experimental: Representative compounds were screened using the following assay procedure to assess the effect on cell viability as described below.
Approximately 2×10^3 SW480 colon cancer cells were seeded into each well and allowed to incubate in the presence or absence of compound for four days at 37° C./5% CO2. Eight replicates of DMSO-treated cells served as controls and cells treated with compound were performed in duplicate.
After incubation, 20 μL of CellTiter-Blue (Promega) was added to each well allowed to incubate for approximately 3 hours. This reagent was a buffered solution which contains resazurin, metabolically active cells were able to reduce rezarurin (blue) into resorufin (pink) which was highly fluorescent. This measured fluorescence was used as a readout for cell viability.

[3] = test system: Primary human fibroblasts derived from IPF patients (LL29 cells); test: Inhibition of the fibrotic process: αSMA staining in TGF-β1-treated LL29 fibroblasts; conditions: Fibroblast; for EC50: 96 h, LL29 cells, TGF-β1 20 ng/mL, 4 days, % αSMA-positive cells
From the text: Representative compounds were screened using primary human fibroblasts (derived from IFF patients) treated with TGF-β1 to determine their ability to inhibit the fibrotic process.
K. L., et.al., “RhoA signaling modulates cyclin D1 expression in human lung fibroblasts; implications for idiopathic pulmonary fibrosis”, Respiratory Research (2006), 7(1), 88] were obtained from American Type Culture Collection (ATCC) and expanded in F12 medium supplemented with 15% Fetal Bovine Serum and Penicillin/Streptomycin.
LL29 cells are plated at 1,500 cells/well in 80 μL/well F12 medium supplemented with 1% Fetal Bovine Serum. […] Wells treated with TGF-β1 and containing DMSO were used as controls. […] Following incubation for 4 days, SYTOX green nucleic acid stain (Life Technologies [Thermo Fisher Scientific]) was added to the wells at a final concentration of 1 μM and incubated at room temperature for 30 min.

IL-6 (THP-1 cells) = test: IL-6 inhibition in THP-1 monocytes (HTRF); conditions: Homo sapiens; for EC50: IL-6 inhibition, THP-1 cells, HTRF, 10-point dose-response starting from 10 μM; for inhibition at 10 µM: THP-1, read-out: percentage in parentheses printed under EC50 >10
Experimental: Compound Screening: THP-1 cells were cultured in basal media with 1% FBS for 24 hours before the start of the assay. […] THP-1 cells were plated at 5000 cells/well in the 384-well plates and incubated at 37° C. for 2 h. 500 ng/mL of […] was added after 2 hours and cells were incubated for another 22 hours at 37° C. Plates were spun in a centrifuge for 1 minute at 10,000 rpm and a mixture of anti-IL6 XL665, and anti-IL6 Cryptate diluted in reconstitution buffer (Cisbio Inc.) was added to each well. Following incubation for 3 hrs at room temperature, Homogeneous Time-Resolved Fluorescence (HTRF) was measured using the Envision (Perkin Elmer) at 665 nm and […]. The ratio of fluorescence at 665 nm to 620 nm was used as a readout for IL6 quantification. All samples were processed in duplicate. Readings were normalized to DMSO treated cells and normalized activities were utilized for EC50 calculations using the dose-response log (inhibitor) vs. response-variable slope (four parameters) nonlinear regression feature available in GraphPad Prism 5.0 (or Dotmatics).

Row | EC50 [1] [nM] | EC50 (SW480 colon cancer cells) [nM] | EC50 (IL-6 (THP-1 cells)) [nM] | SMILES | Emax [2] [%] | EC50 [3] [nM] | inhibition at 10 µM (IL-6 (THP-1 cells)) [%] | inhibition at 10 µM ([3]; read-out: percent inhibition at 10 μM) [%] | inhibition at 10 µM (SW480 colon cancer cells) [%] | inhibition at 10 µM [1] [%]
1 | 1060 | 2170 | 1160 | CN(C)Cc1cncc(-c2ccc3[nH]nc(-c4cc5c(-c6ccncc6)cncc5[nH]4)c3c2)c1 [Compound 125] | 18 | 2440 |  |  |  | 
2 | 620 | 513 | 108 | O=C(Nc1cncc(-c2ccc3[nH]nc(-c4cc5c(-c6cccc(F)c6)cncc5[nH]4)c3c2)c1)C1CCCCC1 [Compound 23, N-(5-(3-(4-(3-Fluorophenyl)-1H-pyrrolo[2,3-c]pyridin-2-yl)-1H-indazol-5-yl)pyridin-3-yl)cyclohexanecarboxamide] |  | 193 |  |  |  | 
3 | 1290 | 1060 | 177 | c1ccc(-c2ccc3[nH]nc(-c4cc5c(-c6ccncc6)cncc5[nH]4)c3c2)nc1 [Compound 140, 5-(Pyridin-2-yl)-3-(4-(pyridin-4-yl)-1H-pyrrolo[2,3-c]pyridin-2-yl)-1H-indazole] |  | 750 |  |  |  | 
4 | 2110 | 988 | > 10000 | Fc1cccc(-c2cncc3[nH]c(-c4n[nH]c5ccc(-c6ccncc6)cc45)cc23)c1 [Compound 18, 3-(4-(3-Fluorophenyl)-1H-pyrrolo[2,3-c]pyridin-2-yl)-5-(pyridin-4-yl)-1H-indazole] |  | 973 | 54.3 |  |  | 
5 | 759 | 1650 | 130 | CC(C)Nc1cncc(-c2ccc3[nH]nc(-c4cc5c(-c6cc(F)cc(CNS(C)(=O)=O)c6)cncc5[nH]4)c3c2)c1 [Compound 488, N-(3-Fluoro-5-(2-(5-(5-(isopropylamino)pyridin-3-yl)-1H-indazol-3-yl)-1H-pyrrolo[2,3-c]pyridin-4-yl)benzyl)methanesulfonamide] |  | 2220 |  |  |  | 
6 | 1730 | 3440 | 397 | CCCCC(=O)Nc1cncc(-c2ccc3[nH]nc(-c4cc5c(-c6cc(F)cc(CNS(C)(=O)=O)c6)cncc5[nH]4)c3c2)c1 [Compound 495, N-(5-(3-(4-(3-Fluoro-5-(methylsulfonamidomethyl)phenyl)-1H-pyrrolo[2,3-c]pyridin-2-yl)-1H-indazol-5-yl)pyridin-3-yl)pentanamide] |  | > 10000 |  | 3.3 |  | 
7 | 3480 | > 10000 | 574 | CS(=O)(=O)NCc1cc(F)cc(-c2cncc3[nH]c(-c4n[nH]c5ccc(-c6cncc(NC(=O)Cc7ccccc7)c6)cc45)cc23)c1 [Compound 486, N-(5-(3-(4-(3-Fluoro-5-(methylsulfonamidomethyl)phenyl)-1H-pyrrolo[2,3-c]pyridin-2-yl)-1H-indazol-5-yl)pyridin-3-yl)-2-phenylacetamide] |  | 4770 |  |  | 45.4 | 
8 | > 10000 | 2160 | 6480 | Fc1ccccc1-c1cncc2[nH]c(-c3n[nH]c4ccc(-c5ccccn5)cc34)cc12 [Compound 84, 3-(4-(2-Fluorophenyl)-1H-pyrrolo[2,3-c]pyridin-2-yl)-5-(pyridin-2-yl)-1H-indazole] |  | 1910 |  |  |  | 45.9
9 | > 10000 | > 10000 | > 10000 | c1cc(-c2ccc3[nH]nc(-c4cc5c(-c6ccncc6)cncc5[nH]4)c3c2)ccn1 [Compound 130, 5-(Pyridin-4-yl)-3-(4-(pyridin-4-yl)-1H-pyrrolo[2,3-c]pyridin-2-yl)-1H-indazole] |  | 1230 | 20.5 |  | 16.6 | 24.7
10 | 240 | 302 | 171 | O=C(Nc1cncc(-c2ccc3[nH]nc(-c4cc5c(-c6ccc(F)cc6)cncc5[nH]4)c3c2)c1)C1CCC1 [Compound 49, N-(5-(3-(4-(4-Fluorophenyl)-1H-pyrrolo[2,3-c]pyridin-2-yl)-1H-indazol-5-yl)pyridin-3-yl)cyclobutanecarboxamide] |  | 135 |  |  |  | 
11 | > 10000 | > 10000 | > 10000 | O=C(Cc1ccccc1)Nc1cncc(-c2ccc3[nH]nc(-c4cc5c(-c6ccncc6)cncc5[nH]4)c3c2)c1 [Compound 122] |  | 1470 | 47.8 |  | 8.6 | 21
12 | 730 | 693 | 1100 | CC(C)(C)CC(=O)Nc1cncc(-c2ccc3[nH]nc(-c4cc5c(-c6ccccc6F)cncc5[nH]4)c3c2)c1 [Compound 72, N-(5-(3-(4-(2-Fluorophenyl)-1H-pyrrolo[2,3-c]pyridin-2-yl)-1H-indazol-5-yl)pyridin-3-yl)-3,3-dimethylbutanamide] |  | 593 |  |  |  | 
13 | 1120 | 1980 | 4450 | c1ncc(-c2ccc3[nH]nc(-c4cc5c(N6CCCCC6)cncc5[nH]4)c3c2)cc1OC1CCCCC1 [Compound 607, 5-(5-(Cyclohexyloxy)pyridin-3-yl)-3-(4-(piperidin-1-yl)-1H-pyrrolo[2,3-c]pyridin-2-yl)-1H-indazole] |  | 647 |  |  |  | 
14 | 49 | 134 | 37 | Fc1ccccc1-c1cncc2[nH]c(-c3n[nH]c4ccc(-c5cn[nH]c5)cc34)cc12 [Compound 539, 3-(4-(2-Fluorophenyl)-1H-pyrrolo[2,3-c]pyridin-2-yl)-5-(1H-pyrazol-4-yl)-1H-indazole] |  | 164 |  |  |  | 
15 | 680 | 702 | 6910 | CC(C)(C)C(=O)Nc1cncc(-c2ccc3[nH]nc(-c4cc5c(-c6ccc(F)cc6)cncc5[nH]4)c3c2)c1 [Compound 36, N-(5-(3-(4-(4-Fluorophenyl)-1H-pyrrolo[2,3-c]pyridin-2-yl)-1H-indazol-5-yl)pyridin-3-yl)pivalamide] |  | 1090 |  |  |  | 
16 | 1330 | 1360 | 1090 | c1cc(-c2ccc3[nH]nc(-c4cc5c(-c6ccsc6)cncc5[nH]4)c3c2)ccn1 [Compound 298, 5-(Pyridin-4-yl)-3-(4-(thiophen-3-yl)-1H-pyrrolo[2,3-c]pyridin-2-yl)-1H-indazole] |  | 716 |  |  |  | 
